The structures appear in SMILES notation. pIC50: −log10 of the molar value. Where only a bound is given, the exact number is not on record here.

In one experiment the test system is AsPC-1 cells. Nature of the experiment: Cell Proliferation Assay, AsPC-1 (CellTiter-Glo 2.0 viability). It counts as cell-based. The conditions noted are these: AsPC-1 pancreatic cancer (KRAS G12D mutation); 72 hours. As for the experimental part: Test Example 3: Cell Proliferation Assay
Cell viability testing of test compounds in AsPC-1 pancreatic cancer (KRAS G12D mutation) or SW480 colon cancer (KRAS G12V mutation) cells for 72 hours
The reference compound Staurosporine was purchased from Sigma-Aldrich (Saint Louis, MI), and CellTiter-Glo® 2.0 Luminescent cell viability assay reagent (cat #G9243) was purchased from Promega (Madison, WI). AsPC-1 and SW480 cell lines were purchased from American Type Culture Collection (Manassas, VA). AsPC-1 cells were cultured with RPMI-1640 (ATCC, cat #30-2001) and SW480 cells were cultured with DMEM (ATCC cat #30-2002).
A medium supplemented with 10% FBS (Sigma-Aldrich, cat #F2442) and 100 µg/mL of penicillin-streptomycin (Sigma-Aldrich, cat #P4333) was used. Cells were cultured at 37 °C in a humidified atmosphere of 5% CO2 and 95% air.
• 1. The test compound and reference compound, Staurosporine were dissolved in DMSO solution to prepare 20 mM (test compound) and 10 mM (control compound, Staurosporine) in the Source Plate and diluted with DMSO to 3-fold and 10 doses. • 2. From the Source Plate, 10 volumes of 125 nL test compound or 25 nL reference compound were dispensed into wells of a 384-well culture plate (VWR, cat #82050-076) using Echo 655. • 3. 25 μL of culture medium including 2000 AsPC-1 or SW480 cells was dispensed into each 384-well cell culture plate. • 4. Cells were cultured with the compound for 72 hours at 37 °C and 5% CO2 conditions. • 5. 25 μL of CellTiter-Glo 2.0 reagent was added to each well of the plate. • 6. The contents were mixed for 2 minutes on an orbital shaker, and the luminescence signal was stabilized at room temperature for 15 minutes. • 7. Luminescence signals were measured with an Envision 2104 Multilabel Reader (PerkinElmer, Santa Clara, CA), and the number of surviving cells was determined through quantification of ATP present in each culture. • 8. IC50 values were calculated based on the Sigmoidal dose-response equation in the GraphPad Prism 4 program.
Compound `C#Cc1c(F)ccc2cc(O)cc(-c3nc4c5c(nc(OC[C@@]67CCCN6C[C@H](F)C7)nc5c3F)N([C@@H](C)c3cccnc3N)CCO4)c12` [Example 13b, 4-(10-((S)-1-(2-aminopyridin-3-yl)ethyl)-4-fluoro-2-(((2R,7aS)-2-fluorotetrahydro-1H-pyrrolizin-7a(5H)-yl)methoxy)-9,10-dihydro-8H-7-oxa-1,3,6,10-tetraazacyclohepta[de]naphthalen-5-yl)-5-ethynyl-6-fluoronaphthalen-2-ol] gave a pIC50 of less than 5.00.

The same experiment, now with this note: Homo sapiens, ASPC1, 72 h, AsPC-1 pancreatic cancer (KRAS G12D mutation).
With `C#Cc1c(F)ccc2cc(O)cc(-c3nc4c5c(nc(OC[C@@]67CCCN6C[C@H](F)C7)nc5c3F)N(C(C)c3cccnc3N)C[C@H](C)O4)c12` (mixture of isomers) [Example 6, 4-((8S)-10-(1-(2-aminopyridin-3-yl)ethyl)-4-fluoro-2-(((2R,7aS)-2-fluorotetrahydro-1H-pyrrolizin-7a(5H)-yl)methoxy)-8-methyl-9,10-dihydro-8H-7-oxa-1,3,6,10-tetraazacyclohepta[de]naphthalen-5-yl)-5-ethynyl-6-fluoronaphthalen-2-ol], the negative-log IC50 (pIC50) was 5.00 to 6.00. Same read-out and setting: the same measure for `C#Cc1c(F)ccc2cc(O)cc(-c3nc4c5c(nc(OCC67CC(=C)CN6CC(=C)C7)nc5c3F)N(C(C)c3cccnc3N)C[C@H](C)O4)c12` (stereo partly drawn) [Example 4, 4-((8S)-10-(1-(2-aminopyridin-3-yl)ethyl)-2-((2,6-dimethylenetetrahydro-1H-pyrrolizin-7a(5H)-yl)methoxy)-4-fluoro-8-methyl-9,10-dihydro-8H-7-oxa-1,3,6,10-tetraazacyclohepta[de]naphthalen-5-yl)-5-ethynyl-6-fluoronaphthalen-2-ol]: less than 5.00.

Compound `C#Cc1c(F)ccc2cc(O)cc(-c3nc4c5c(nc(OCC6(CN7CCOCC7)CC6)nc5c3F)N(C(C)c3cccnc3N)C[C@H](C)O4)c12` (stereo partly drawn) [Example 5, 4-((8S)-10-(1-(2-aminopyridin-3-yl)ethyl)-4-fluoro-8-methyl-2-((1-(morpholinomethyl)cyclopropyl)methoxy)-9,10-dihydro-8H-7-oxa-1,3,6,10-tetraazacyclohepta[de]naphthalen-5-yl)-5-ethynyl-6-fluoronaphthalen-2-ol] showed a pIC50 of less than 5.00. In turn, `C#Cc1c(F)ccc2cc(O)cc(-c3nc4c5c(nc(OC[C@@]67CCCN6C[C@H](F)C7)nc5c3F)N([C@@H](C)c3cccnc3N)C[C@H](C)O4)c12` [Example 6b, 4-((S)-10-((S)-1-(2-aminopyridin-3-yl)ethyl)-4-fluoro-2-(((2R,7aS)-2-fluorotetrahydro-1H-pyrrolizin-7a(5H)-yl)methoxy)-8-methyl-9,10-dihydro-8H-7-oxa-1,3,6,10-tetraazacyclohepta[de]naphthalen-5-yl)-5-ethynyl-6-fluoronaphthalen-2-ol] had a pIC50 of less than 5.00. On to `C#Cc1c(F)ccc2cc(O)cc(-c3nc4c5c(nc(OCC6CC(F)(F)CN6C)nc5c3F)N(C(C)c3cccnc3N)C[C@H](C)O4)c12` (stereo partly drawn) [Example 7, 4-((8S)-10-(1-(2-aminopyridin-3-yl)ethyl)-2-((4,4-difluoro-1-methylpyrrolidin-2-yl)methoxy)-4-fluoro-8-methyl-9,10-dihydro-8H-7-oxa-1,3,6,10-tetraazacyclohepta[de]naphthalen-5-yl)-5-ethynyl-6-fluoronaphthalen-2-ol], for which the pIC50 is less than 5.00. With `C#Cc1c(F)ccc2cc(O)cc(-c3nc4c5c(nc(OC[C@@H]6CCN6CC(F)F)nc5c3F)N(C(C)c3cccnc3N)C[C@H](C)O4)c12` (stereo partly drawn) [Example 8, 4-((8S)-10-(1-(2-aminopyridin-3-yl)ethyl)-2-(((S)-1-(2,2-difluoroethyl)azetidin-2-yl)methoxy)-4-fluoro-8-methyl-9,10-dihydro-8H-7-oxa-1,3,6,10-tetraazacyclohepta[de]naphthalen-5-yl)-5-ethynyl-6-fluoronaphthalen-2-ol], the pIC50 is less than 5.00.

For the compound `C#Cc1c(F)ccc2cc(O)cc(-c3nc4c5c(nc(OCC67COC(C6)C7)nc5c3F)N(C(C)c3cccnc3N)C[C@H](C)O4)c12` (stereo partly drawn) [Example 9, 4-((8S)-2-((2-oxabicyclo[2.1.1]hexan-4-yl)methoxy)-10-(1-(2-aminopyridin-3-yl)ethyl)-4-fluoro-8-methyl-9,10-dihydro-8H-7-oxa-1,3,6,10-tetraazacyclohepta[de]naphthalen-5-yl)-5-ethynyl-6-fluoronaphthalen-2-ol], the pIC50 was 5.00 to 6.00.

As for `C[C@H]1CN([C@@H](C)c2cccnc2N)c2nc(OC[C@@]34CCCN3C[C@H](F)C4)nc3c(F)c(-c4cc(O)cc5ccc(F)c(F)c45)nc(c23)O1` [Example 10b, 4-((S)-10-((S)-1-(2-aminopyridin-3-yl)ethyl)-4-fluoro-2-(((2R,7aS)-2-fluorotetrahydro-1H-pyrrolizin-7a(5H)-yl)methoxy)-8-methyl-9,10-dihydro-8H-7-oxa-1,3,6,10-tetraazacyclohepta[de]naphthalen-5-yl)-5,6-difluoronaphthalen-2-ol], the pIC50 was less than 5.00. For the compound `CC(c1cccnc1N)N1C[C@H](C)Oc2nc(-c3cc(O)cc(Cl)c3C3CC3)c(F)c3nc(OC[C@@]45CCCN4C[C@H](F)C5)nc1c23` (stereo partly drawn) [Example 11, 3-((8S)-10-(1-(2-aminopyridin-3-yl)ethyl)-4-fluoro-2-(((2R,7aS)-2-fluorotetrahydro-1H-pyrrolizin-7a(5H)-yl)methoxy)-8-methyl-9,10-dihydro-8H-7-oxa-1,3,6,10-tetraazacyclohepta[de]naphthalen-5-yl)-5-chloro-4-cyclopropylphenol], the pIC50 is less than 5.00. Still for that read-out and setting: to `CCc1c(F)ccc2cc(O)cc(-c3nc4c5c(nc(OC[C@@]67CCCN6C[C@H](F)C7)nc5c3F)N([C@@H](C)c3cccnc3N)CCO4)c12` [Example 14b, 4-(10-((S)-1-(2-aminopyridin-3-yl)ethyl)-4-fluoro-2-(((2R,7aS)-2-fluorotetrahydro-1H-pyrrolizin-7a(5H)-yl)methoxy)-9,10-dihydro-8H-7-oxa-1,3,6,10-tetraazacyclohepta[de]naphthalen-5-yl)-5-ethyl-6-fluoronaphthalen-2-ol] belongs 5.00 to 6.00; to `C#Cc1c(F)ccc2cc(O)cc(-c3nc4c5c(nc(OC[C@@H]6CC(F)(F)CN6C)nc5c3F)N(C(C)c3cccnc3N)CCO4)c12` (stereo partly drawn) [Example 15, 4-(10-(1-(2-aminopyridin-3-yl)ethyl)-2-(((S)-4,4-difluoro-1-methylpyrrolidin-2-yl)methoxy)-4-fluoro-9,10-dihydro-8H-7-oxa-1,3,6,10-tetraazacyclohepta[de]naphthalen-5-yl)-5-ethynyl-6-fluoronaphthalen-2-ol], 5.00 to 6.00. The same measure, in the same setting: the same measure for `C=C1CN2CC(=C)CC2(COc2nc3c4c(nc(-c5cc(O)cc6ccc(F)c(CC)c56)c(F)c4n2)OCCN3C(C)c2cccnc2N)C1` (centres unmarked) [Example 19, 4-(10-(1-(2-aminopyridin-3-yl)ethyl)-2-((2,6-dimethylenetetrahydro-1H-pyrrolizin-7a(5H)-yl)methoxy)-4-fluoro-9,10-dihydro-8H-7-oxa-1,3,6,10-tetraazacyclohepta[de]naphthalen-5-yl)-5-ethyl-6-fluoronaphthalen-2-ol]: 5.00 to 6.00; for `CCc1c(F)ccc2cc(O)cc(-c3nc4c5c(nc(OC[C@@]67CCCN6C[C@H](F)C7)nc5c3F)N(C(C)c3ccccc3N)CCO4)c12` (stereo partly drawn) [Example 21, 4-(10-(1-(2-aminophenyl)ethyl)-4-fluoro-2-(((2R,7aS)-2-fluorotetrahydro-1H-pyrrolizin-7a(5H)-yl)methoxy)-9,10-dihydro-8H-7-oxa-1,3,6,10-tetraazacyclohepta[de]naphthalen-5-yl)-5-ethyl-6-fluoronaphthalen-2-ol]: less than 5.00.
